Results reported in ChEMBL document CHEMBL1201862, “PubChem BioAssay data set” (2004).
The source made the active and inactive calls.

How the values were obtained:
[1] = HEK293 Cytotoxicity Assay Measured in Cell-Based System Using Plate Reader - 7071-01_Inhibitor_Dose_CherryPick_Activity_Set2.; format: functional
Cryptococcus neoformans = assay: PubChem AID 686997; format: functional, organism-based
HEK293 = assay: viability loss in HEK293T cells – cell-based, ATP luminescence, cherry-pick samples, cytotoxicity control, dose response (AID 687005); format: functional; conditions: Homo sapiens;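 note: cells exposed to compound for 48 hours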
[2] = A2780 cell killing – plate reader, dry powder samples, cytotoxicity control, dose response (AID 743046); format: functional, cell-based
[3] = general cell-killing toxicity readout – plate reader, dry powder samples, cytotoxicity control for PAX8 inhibitor project, dose response (AID 743021); format: functional, cell-based
[4] = toxicity toward immortalized ovarian surface epithelium – cell-based, plate reader, dry powder samples, cytotoxicity control for PAX8 inhibitor project, dose response (AID 743045); format: functional
[5] = OVCAR8 cell viability loss – plate reader, dry powder samples, PAX8 project, dose response (AID 743197); format: functional, cell-based; conditions: OVCAR-8
[6] = CMV-driven luciferase expression suppression in HEK293 – cell-based, luminescence, dry powder, counter-screen for Pax8 inhibitor project, dose response (AID 743020); format: functional
Paired box protein Pax-8 = Paired box protein Pax-8 (Homo sapiens, UniProt Q06710); assay: PAX8 transcriptional activity inhibition in RMG-I – RMG-I cells, luciferase, cherry-pick, dose response (AID 687027); format: functional, cell-based;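 note: luciferase reporter driven by Pax8 target thyroperoxidase promoter measured by SteadyGlo luminescence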
[7] = OVCAR-3 cell viability loss – plate reader, dry powder samples, PAX8 inhibitor project, dose response (AID 743044); format: functional, cell-based
[8] = Cytotoxicity screening for potential Inhibitors of Bacterial Capsule Biogenesis (4).; format: functional
HeLa = assay: viability loss in HeLa cells – cell-based, ATP luminescence, cherry-pick samples, cytotoxicity control, dose response (AID 687004); format: functional; conditions: Homo sapiens
[9] = molecular target: T1, Sentrin-specific protease 8 (Homo sapiens, UniProt Q96LD8); format: functional
T1 sequence (Q96LD8 whole entry): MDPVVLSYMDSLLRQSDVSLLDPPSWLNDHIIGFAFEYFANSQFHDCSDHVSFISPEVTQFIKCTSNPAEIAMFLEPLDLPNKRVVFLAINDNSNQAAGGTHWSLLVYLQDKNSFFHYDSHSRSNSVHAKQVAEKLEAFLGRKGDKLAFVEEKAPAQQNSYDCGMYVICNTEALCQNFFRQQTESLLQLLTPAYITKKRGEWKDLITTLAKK

Caspase-3 = molecular target: T2, Caspase-3 (Homo sapiens, UniProt P42574); assay: Dose-response confirmation of uHTS inhibitor hits of Sentrin-Specific Protease 8 in a Caspase-3 Fluorescence assay.; format: functional
T2 sequence (P42574 whole entry): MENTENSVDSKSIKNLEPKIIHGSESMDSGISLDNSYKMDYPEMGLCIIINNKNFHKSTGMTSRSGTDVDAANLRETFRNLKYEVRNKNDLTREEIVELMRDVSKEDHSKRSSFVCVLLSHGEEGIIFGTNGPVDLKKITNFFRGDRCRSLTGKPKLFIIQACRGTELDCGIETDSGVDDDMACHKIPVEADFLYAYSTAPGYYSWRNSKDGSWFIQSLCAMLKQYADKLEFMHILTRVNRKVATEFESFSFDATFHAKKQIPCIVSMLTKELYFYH

[10] = molecular target: T1, Sentrin-specific protease 8; format: functional; remark: listed apart in the source
[11] = molecular target: T3, DNA repair and recombination protein RAD54-like (Homo sapiens, UniProt Q92698); assay: RAD54 Holliday junction migration blockers – biochemical, fluorescence, cherry-picked samples, dose series, confirmation (AID 651657); format: functional
T3 sequence (Q92698 whole entry): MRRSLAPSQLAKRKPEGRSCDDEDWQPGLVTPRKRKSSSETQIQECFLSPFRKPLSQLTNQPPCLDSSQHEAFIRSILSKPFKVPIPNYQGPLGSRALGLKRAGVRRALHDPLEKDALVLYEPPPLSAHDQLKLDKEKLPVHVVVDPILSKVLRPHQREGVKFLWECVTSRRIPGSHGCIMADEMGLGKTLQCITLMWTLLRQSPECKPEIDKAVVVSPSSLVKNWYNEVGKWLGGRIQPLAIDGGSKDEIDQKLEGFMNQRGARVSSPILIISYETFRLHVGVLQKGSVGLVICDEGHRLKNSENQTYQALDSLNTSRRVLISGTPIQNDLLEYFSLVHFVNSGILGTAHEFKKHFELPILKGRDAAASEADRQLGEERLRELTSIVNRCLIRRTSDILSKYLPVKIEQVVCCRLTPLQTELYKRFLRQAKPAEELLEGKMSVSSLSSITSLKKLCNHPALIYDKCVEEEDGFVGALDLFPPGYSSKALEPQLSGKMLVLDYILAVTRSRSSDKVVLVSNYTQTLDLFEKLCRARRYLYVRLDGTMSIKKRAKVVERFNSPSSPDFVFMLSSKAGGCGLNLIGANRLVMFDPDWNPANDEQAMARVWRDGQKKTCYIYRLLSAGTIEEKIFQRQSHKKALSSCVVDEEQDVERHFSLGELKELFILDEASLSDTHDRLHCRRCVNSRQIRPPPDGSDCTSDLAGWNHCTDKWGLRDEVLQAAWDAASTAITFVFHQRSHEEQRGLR

[12] = acridine orange displacement from DNA – biochemical, fluorescence polarization, cherry-pick, artefact control for RAD54 inhibitor project, dose response (AID 651673); format: functional
[13] = molecular target: T4, DNA repair protein RAD52 homolog (Homo sapiens, UniProt P43351); format: functional, biochemical
T4 sequence (P43351 whole entry): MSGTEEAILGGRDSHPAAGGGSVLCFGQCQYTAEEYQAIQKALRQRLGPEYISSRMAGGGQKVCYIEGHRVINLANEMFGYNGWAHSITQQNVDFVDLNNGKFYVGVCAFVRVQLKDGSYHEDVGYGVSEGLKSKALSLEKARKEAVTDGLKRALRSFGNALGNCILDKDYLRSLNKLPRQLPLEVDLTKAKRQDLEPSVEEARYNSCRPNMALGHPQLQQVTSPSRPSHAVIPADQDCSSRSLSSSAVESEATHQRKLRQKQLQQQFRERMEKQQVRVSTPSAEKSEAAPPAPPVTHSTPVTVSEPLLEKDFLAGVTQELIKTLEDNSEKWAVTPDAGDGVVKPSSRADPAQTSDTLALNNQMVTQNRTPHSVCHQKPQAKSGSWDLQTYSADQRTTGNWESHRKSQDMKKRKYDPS

[14] = molecular target: T5, Methionyl-tRNA synthetase, putative (Trypanosoma brucei brucei, UniProt Q38C91); format: functional, Trypanosoma brucei brucei strain 927/4 GUTat10.1
[15] = Counterscreen for inhibitors of Trypanosoma brucei methionyl tRNA synthetase (MetRS): Luminescence-based cell-based high throughput dose response assay to identify compounds that are cytotoxic to Jurkat human T lymphocyte cells.; format: functional
[16] = molecular target: T5, Methionyl-tRNA synthetase, putative; format: functional, Trypanosoma brucei brucei strain 927/4 GUTat10.1; remark: listed apart in the source
Protein Wnt-3a = Protein Wnt-3a (Mus musculus, UniProt P27467); assay: SAR analysis of small molecule antagonists of Gli-SUFU in a Wnt3a luminescent reporter assay.; format: functional
Sequence of Protein Wnt-3a (P27467 whole entry): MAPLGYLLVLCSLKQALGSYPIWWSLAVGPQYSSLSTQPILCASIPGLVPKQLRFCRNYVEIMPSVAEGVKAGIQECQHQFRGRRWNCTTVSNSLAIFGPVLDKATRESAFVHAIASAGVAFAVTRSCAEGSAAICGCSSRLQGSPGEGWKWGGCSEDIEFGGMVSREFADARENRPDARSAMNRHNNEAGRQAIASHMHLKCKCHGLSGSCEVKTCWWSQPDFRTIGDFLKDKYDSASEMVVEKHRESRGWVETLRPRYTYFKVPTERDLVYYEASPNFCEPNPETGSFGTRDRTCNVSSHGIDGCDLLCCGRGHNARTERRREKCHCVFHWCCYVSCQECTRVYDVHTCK

T5 sequence (Q38C91 whole entry): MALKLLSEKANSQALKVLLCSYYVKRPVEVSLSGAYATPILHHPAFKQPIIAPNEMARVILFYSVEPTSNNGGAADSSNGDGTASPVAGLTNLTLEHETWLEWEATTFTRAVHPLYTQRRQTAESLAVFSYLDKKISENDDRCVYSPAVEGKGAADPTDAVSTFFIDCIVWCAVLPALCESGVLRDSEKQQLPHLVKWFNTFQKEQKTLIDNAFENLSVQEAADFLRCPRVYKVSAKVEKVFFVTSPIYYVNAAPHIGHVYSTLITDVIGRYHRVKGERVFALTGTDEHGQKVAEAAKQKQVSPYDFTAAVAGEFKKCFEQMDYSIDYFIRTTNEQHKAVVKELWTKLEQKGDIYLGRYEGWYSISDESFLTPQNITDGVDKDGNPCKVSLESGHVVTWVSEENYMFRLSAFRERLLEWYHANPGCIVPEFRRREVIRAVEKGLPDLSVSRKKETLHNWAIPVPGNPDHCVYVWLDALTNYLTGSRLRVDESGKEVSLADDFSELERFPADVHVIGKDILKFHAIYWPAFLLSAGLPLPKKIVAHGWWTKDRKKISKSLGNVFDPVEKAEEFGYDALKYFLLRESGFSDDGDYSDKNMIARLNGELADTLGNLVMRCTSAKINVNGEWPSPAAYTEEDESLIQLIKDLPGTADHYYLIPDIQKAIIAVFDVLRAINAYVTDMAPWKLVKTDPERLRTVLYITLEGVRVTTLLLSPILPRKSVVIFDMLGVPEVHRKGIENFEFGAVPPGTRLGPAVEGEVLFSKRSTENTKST
Sequence of Paired box protein Pax-8 (Q06710 whole entry): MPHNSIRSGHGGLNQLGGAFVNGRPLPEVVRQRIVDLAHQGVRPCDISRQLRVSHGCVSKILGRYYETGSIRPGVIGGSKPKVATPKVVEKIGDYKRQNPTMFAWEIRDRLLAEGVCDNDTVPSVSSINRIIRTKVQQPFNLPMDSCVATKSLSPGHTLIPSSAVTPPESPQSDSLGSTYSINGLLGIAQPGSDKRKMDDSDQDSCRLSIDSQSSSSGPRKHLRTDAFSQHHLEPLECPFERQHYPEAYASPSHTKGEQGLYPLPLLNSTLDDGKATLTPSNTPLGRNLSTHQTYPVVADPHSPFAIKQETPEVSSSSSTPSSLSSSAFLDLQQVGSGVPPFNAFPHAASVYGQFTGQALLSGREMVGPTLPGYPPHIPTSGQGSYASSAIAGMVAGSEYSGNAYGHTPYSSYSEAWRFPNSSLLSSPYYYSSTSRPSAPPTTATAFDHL

COC(=O)C1=C(C)N(Cc2ccc(F)cc2)C(=S)NC1c1cccc(Br)c1 (centres undefined)
AC50 [1]: 6.17 µM (active) | AC50 (Cryptococcus neoformans): 36.7 µM (active) | AC50 (HEK293): 6.17 µM (active)

C[C@@H]1CN([C@H](C)CO)C(=O)c2cc(NC(=O)Nc3ccccc3)ccc2O[C@@H](C)CCCCO[C@@H]1CN(C)Cc1ccc(Cl)c(Cl)c1
AC50 [2]: 14.9 µM (active) | AC50 [3]: 52.3 µM (active) | AC50 [4]: 44.5 µM (active) | AC50 [5]: 29.6 µM (active) | AC50 [6]: 43.4 µM (active) | AC50 (Paired box protein Pax-8): 4.45 µM (active) | AC50 [7]: 18.4 µM (active)

CC(C)(C)OC(=O)Nc1nc2ccc(C(=O)Nc3ccnc(Br)c3)cc2s1
CC50 [8]: > 300 µM (inactive)

O=S(=O)(c1ccc(F)cc1)N1C[C@@H]2[C@H](c3ccccc31)[C@@H](CO)N2Cc1ccccc1Cl
AC50 [1]: 18.9 µM (active) | AC50 (HeLa): > 47 µM (inactive) | AC50 (HEK293): 18.9 µM (active)

COc1ccc(NC(=O)[C@@H]2[C@@H]3C(=O)N(C4CCCCC4)C(=O)[C@@H]3C3c4ccccc4C=CN32)cc1 (some centres undefined)
IC50 [9]: 16.3 µM (active) | IC50 (Caspase-3): 10.8 µM (active) | IC50 [10]: 4.79 µM (active)

c1cncc(Nc2c3ccccc3nc3ccccc23)c1
AC50 [11]: 12.8 µM (active) | AC50 [12]: 49.5 µM (active) | AC50 [13]: 7.23 µM (active)

Cc1cc(C)c(O)c(-c2cc(C(=O)NCCc3ccc(S(N)(=O)=O)cc3)[nH]n2)c1
IC50 [14]: 70.9 µM (inactive) | IC50 [15]: 83.3 µM (inactive) | IC50 [16]: 39.5 µM (inactive)

CC(C)CNc1cc(NC(=O)c2cccc(F)c2)ncn1
IC50 (Protein Wnt-3a): > 21.8 µM (inactive)
